Test results taken from the supplement of paper PMC10307832.

What was measured:
Assay in all cases: relative viability (nuclei count vs DMSO), 5 days (fraction); higher = more cells survive
AGI-6780 + Trametinib = compound: O=C(Nc1cccc(C(F)(F)F)c1)Nc1cc(S(=O)(=O)NC2CC2)ccc1-c1ccsc1 [AGI-6780] + CC(=O)Nc1cccc(-n2c(=O)n(C3CC3)c(=O)c3c(Nc4ccc(I)cc4F)n(C)c(=O)c(C)c32)c1 [Trametinib] (partner 0.02 µM)
Procedure, shortened: (§1)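 Lung cancer cell lines, seeded in 1536-well plates, were treated the following day by pin tool with a single drug or with five library-drug doses (not always all listed) in √10 steps on top of a fixed anchor-drug dose. Cells were fixed and nuclei stained in one step after 5 days, and nuclei were counted. Relative viability is the nuclei count for treated wells divided by that for vehicle wells, reported as medians of duplicate plates.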

AGI-6780 + OSI-027 = compound: O=C(Nc1cccc(C(F)(F)F)c1)Nc1cc(S(=O)(=O)NC2CC2)ccc1-c1ccsc1 [AGI-6780] + COc1cccc2cc(-c3nc([C@H]4CC[C@H](C(=O)O)CC4)n4ncnc(N)c34)[nH]c12 [OSI-027] (partner 0.5 µM)
Procedure, shortened: as §1

AGI-6780 + Lapatinib = compound: O=C(Nc1cccc(C(F)(F)F)c1)Nc1cc(S(=O)(=O)NC2CC2)ccc1-c1ccsc1 [AGI-6780] + CS(=O)(=O)CCNCc1ccc(-c2ccc3ncnc(Nc4ccc(OCc5cccc(F)c5)c(Cl)c4)c3c2)o1 [Lapatinib] (partner 2 µM)
Procedure, shortened: as §1

AGI-6780 + Linsitinib = compound: O=C(Nc1cccc(C(F)(F)F)c1)Nc1cc(S(=O)(=O)NC2CC2)ccc1-c1ccsc1 [AGI-6780] + C[C@]1(O)C[C@@H](c2nc(-c3ccc4ccc(-c5ccccc5)nc4c3)c3c(N)nccn32)C1 [Linsitinib] (partner 1 µM)
Procedure, shortened: as §1

Row | Cell Line | relative viability (AGI-6780 + Trametinib; first compound 0.08 µM) | relative viability (AGI-6780 + Trametinib; first compound 0.253 µM) | relative viability (AGI-6780 + Trametinib; first compound 0.8 µM) | relative viability (AGI-6780 + Trametinib; first compound 2.53 µM) | relative viability (AGI-6780 + Trametinib; first compound 8 µM) | relative viability (AGI-6780 + OSI-027; first compound 0.253 µM) | relative viability (AGI-6780 + OSI-027; first compound 0.8 µM) | relative viability (AGI-6780 + OSI-027; first compound 2.53 µM) | relative viability (AGI-6780 + OSI-027; first compound 8 µM) | relative viability (AGI-6780 + Lapatinib; first compound 0.08 µM) | relative viability (AGI-6780 + Lapatinib; first compound 0.253 µM) | relative viability (AGI-6780 + Lapatinib; first compound 0.8 µM) | relative viability (AGI-6780 + Lapatinib; first compound 2.53 µM) | relative viability (AGI-6780 + Lapatinib; first compound 8 µM) | relative viability (AGI-6780 + Linsitinib; first compound 0.08 µM) | relative viability (AGI-6780 + Linsitinib; first compound 0.253 µM) | relative viability (AGI-6780 + Linsitinib; first compound 0.8 µM) | relative viability (AGI-6780 + Linsitinib; first compound 2.53 µM) | relative viability (AGI-6780 + Linsitinib; first compound 8 µM) | relative viability (AGI-6780 + OSI-027; first compound 0.08 µM)
1 | HCC-78 | 0.824 | 0.629 | 0.925 | 0.924 | 0.775 | 0.37 | 0.431 | 0.364 | 0.355 | 0.66 | 0.702 | 0.821 | 0.485 | 0.992 | 0.592 | 0.491 | 0.587 | 0.561 | 0.537 | –
2 | HCC-366 | 0.395 | 0.375 | 0.365 | 0.156 | 0.301 | 1.09 | 0.926 | 0.595 | 1 | 1.05 | 1.08 | 1.01 | 1.1 | 1.05 | 0.891 | 0.682 | 0.637 | 0.536 | 0.568 | 1.02
3 | HCC-827 | 0.457 | 0.518 | 0.518 | 0.435 | 0.476 | 0.705 | 0.824 | 0.673 | 0.798 | 0.201 | 0.215 | 0.197 | 0.191 | 0.179 | 1.01 | 0.96 | 0.872 | 0.989 | 0.942 | 0.68
4 | HOP-62 | 0.366 | 0.321 | 0.316 | 0.321 | 0.396 | 0.906 | 0.884 | 0.715 | 1.01 | 0.974 | 0.888 | 0.965 | 1.06 | 1.06 | 0.945 | 1.3 | 1.08 | 1.04 | 0.826 | 0.886
5 | IA-LM | – | – | – | – | – | – | – | – | – | 1.01 | 0.845 | 0.928 | 0.83 | 0.896 | 0.58 | 0.627 | 0.762 | 0.536 | 0.56 | –
6 | LC-2-ad | 0.917 | 0.873 | 0.931 | 0.964 | 0.917 | 0.875 | 0.874 | 0.638 | 0.794 | 0.943 | 1.04 | 0.979 | 1.02 | 0.958 | 0.824 | 0.9 | 0.878 | 0.882 | 0.791 | 0.829
7 | LCLC-97TM1 | 0.173 | 0.21 | 0.152 | 0.159 | 0.197 | 0.697 | 0.492 | 0.398 | 0.643 | 0.803 | 1.61 | 1.14 | – | 1 | 0.177 | 0.252 | 0.21 | – | 0.186 | 0.596
8 | LCLC-103H | 0.678 | 0.709 | 0.643 | 0.644 | 0.696 | 0.518 | 0.45 | 0.38 | 0.491 | – | – | – | – | – | 1.18 | 1.15 | 0.963 | 1.06 | 1.06 | 0.554
9 | LK-2 | 0.864 | 0.69 | 0.813 | 0.541 | 0.868 | 0.224 | 0.189 | – | 0.197 | 0.867 | 0.951 | 1.14 | – | 0.958 | 0.617 | 0.646 | 0.536 | – | 0.522 | 0.172
10 | LOU-NH91 | 0.826 | 0.777 | 0.765 | 0.751 | 0.824 | 0.705 | 0.676 | 0.621 | 0.709 | 0.773 | 0.836 | 0.78 | 0.587 | 0.737 | 0.99 | 0.921 | 0.857 | 0.901 | 0.93 | 0.739
11 | LU99A | 0.547 | 0.572 | 0.431 | 0.44 | 0.534 | 0.304 | 0.28 | 0.255 | 0.31 | 1.12 | 0.98 | 0.976 | 0.825 | 1.03 | 0.581 | 0.57 | 0.54 | 0.498 | 0.565 | 0.339
12 | LXF-289 | 0.722 | 0.683 | 0.657 | 0.74 | 0.683 | 0.843 | 0.844 | 0.666 | 0.921 | 0.903 | 0.897 | 0.906 | 0.936 | 0.831 | 0.952 | 1.01 | 1.01 | 1.01 | 0.897 | 0.862
13 | NCI-H441 | 0.554 | 0.49 | 0.553 | 0.422 | 0.51 | 0.922 | 0.599 | 0.54 | 0.504 | – | – | – | – | – | 0.498 | 0.528 | 0.461 | 0.424 | 0.459 | 0.78
14 | NCI-H522 | 0.667 | 0.801 | 0.75 | – | 0.645 | 0.724 | 0.804 | 0.564 | 0.751 | – | – | – | – | – | – | – | – | – | – | 0.782
15 | NCI-H1299 | – | – | – | – | – | – | – | – | – | 1.01 | 0.978 | 0.925 | 0.929 | 0.968 | 1.01 | 0.987 | 0.941 | 1.05 | 1.04 | –
16 | NCI-H1563 | – | – | – | – | – | 0.752 | 0.805 | 0.666 | 0.728 | 1.03 | 0.924 | 0.987 | 0.881 | 0.903 | 1.27 | 1.22 | 1.24 | 1.11 | 1.08 | 0.784
17 | NCI-H1648 | 0.47 | 0.53 | 0.377 | 0.409 | 0.433 | 0.292 | 0.258 | 0.277 | 0.242 | – | – | – | – | – | – | – | – | – | – | 0.26
18 | NCI-H1650 | 0.559 | 0.555 | 0.653 | 0.623 | 0.757 | 0.597 | 0.856 | 0.552 | 0.638 | 0.739 | 0.777 | 1.16 | 0.789 | 0.874 | – | – | – | – | – | 0.641
19 | NCI-H1703 | – | – | – | – | – | – | – | – | – | 1.11 | 0.87 | 1.82 | 1.13 | 0.93 | 1.18 | 0.978 | 0.736 | 0.559 | 0.166 | –
20 | NCI-H2170 | 1.03 | 0.881 | 0.997 | – | 0.863 | 0.762 | 0.768 | 0.596 | 0.733 | 0.291 | 0.281 | 0.272 | – | 0.257 | – | – | – | – | – | 0.694
21 | NCI-H2342 | 0.866 | 0.72 | 0.772 | 0.723 | 0.981 | 0.721 | 0.58 | 0.57 | 0.662 | – | – | – | – | – | – | – | – | – | – | 0.63
